Patent US20250011288A1 (BRISTOL-MYERS SQUIBB COMPANY, priority 2021, published 2025)

These compounds were tested against T1, human RXFP1 (Homo sapiens, UniProt Q9HBX9) (assay: human RXFP1 (hRXFP1) HEK293 cAMP assay (HTRF)). Settings: HEK293 cells stably expressing human RXFP1, 30 min at room temperature.
T1 construct: expressed in transfected cells
T1 sequence (Q9HBX9 1-757): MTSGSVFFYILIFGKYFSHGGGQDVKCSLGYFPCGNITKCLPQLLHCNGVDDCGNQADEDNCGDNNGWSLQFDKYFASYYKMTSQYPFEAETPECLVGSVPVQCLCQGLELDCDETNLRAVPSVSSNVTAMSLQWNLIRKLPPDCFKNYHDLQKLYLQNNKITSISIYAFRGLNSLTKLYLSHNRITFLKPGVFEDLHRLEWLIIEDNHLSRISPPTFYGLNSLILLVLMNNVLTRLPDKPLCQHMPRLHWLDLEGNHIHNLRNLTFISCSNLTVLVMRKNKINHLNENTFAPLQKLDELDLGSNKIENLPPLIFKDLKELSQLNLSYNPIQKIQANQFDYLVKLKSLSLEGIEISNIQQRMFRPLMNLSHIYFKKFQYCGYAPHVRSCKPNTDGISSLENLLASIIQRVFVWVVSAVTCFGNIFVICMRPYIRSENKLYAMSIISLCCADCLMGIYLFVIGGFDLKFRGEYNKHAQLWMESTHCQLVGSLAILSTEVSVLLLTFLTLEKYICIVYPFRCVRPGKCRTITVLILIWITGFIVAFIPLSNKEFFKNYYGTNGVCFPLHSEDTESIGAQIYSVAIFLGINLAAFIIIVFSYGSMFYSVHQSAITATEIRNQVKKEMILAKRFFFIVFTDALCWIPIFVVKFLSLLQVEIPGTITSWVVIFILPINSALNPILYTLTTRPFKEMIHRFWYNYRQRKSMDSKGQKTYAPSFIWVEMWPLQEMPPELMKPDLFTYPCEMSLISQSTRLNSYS
Assay type: cell-based
Procedure, shortened: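 Intracellular cAMP was quantified by HTRF after a 30 min room-temperature exposure of hRXFP1-HEK293 cells (1500/well) to compound at 0.010 nM–50 µM final, 2% DMSO. Buffer was HBSS with 20 mM HEPES, 0.05% BSA and 0.5 mM IBMX; values came from a 4-parameter logistic fit.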

Row | Structure (SMILES) | EC50 [nM]
1 | COc1ccncc1C(=O)N[C@@H]1C2CCC(C2=C(C)C)[C@@H]1C(=O)Nc1ccc(F)c(C(F)(F)F)c1 (stereo partly drawn) [Example 2, N-[(2R,3S)-3-{[4-fluoro-3-(trifluoromethyl)phenyl]carbamoyl}-7-(propan-2-ylidene)bicyclo [2.2.1]heptan-2-yl]-4-methoxypyridine-3-carboxamide] | 660
2 | COc1ncc(C(=O)N2CC(O)C2)cc1C(=O)N[C@H]1[C@@H](C(=O)Nc2ccc(F)c(C(F)(F)F)c2)[C@H]2CC[C@@H]1/C2=C\C1CC1 [Example 75, N-[(1R,2R,3S, 4R,7Z)-7-(cyclopropyl-methylidene)-3-{[4-fluoro-3-(trifluoromethyl)phenyl]carbamoyl}bicyclo[2.2.1]heptan-2-yl]-5-(3-hydroxyazetidine-1-carbonyl)-2-methoxypyridine-3-carboxamide] | 8.1
3 | COc1ncc(C2=NOC3CC(C(OC(=O)NC4CCC4)C(F)(F)F)CC23)cc1C(=O)N[C@@H]1C2CCC(/C2=C/C2CC2)[C@@H]1C(=O)Nc1ccc(F)c(C(F)(F)F)c1 (stereo partly drawn) [Example 171, 1-[3-(5-{[(2R,3S,7Z)-7-(cyclopropyl-methylidene)-3-{[4-fluoro-3-(trifluoromethyl)phenyl]carbamoyl}bicyclo[2.2.1]heptan-2-yl]carbamoyl}-6-methoxypyridin-3-yl)-3aH,4H,5H,6H, 6aH-cyclopenta[d][1,2]oxazol-5-yl]-2,2,2-trifluoroethyl N-cyclobutyl-carbamate] | 7.9
4 | COc1cc2c(cc1C(=O)N[C@H]1[C@@H](C(=O)Nc3ccc(F)c(C(F)(F)F)c3)[C@H]3CC[C@@H]1/C3=C\C1CC1)CCN(CCCO)C2 [Example 90, N-((1R,2R,3S,4R,Z)-7-(cyclopropylmethylene)-3-((4-fluoro-3-(trifluoromethyl)phenyl)carbamoyl)bicyclo[2.2.1]heptan-2-yl)-2-(3-hydroxypropyl)-7-methoxy-1,2,3,4-tetrahydroisoquinoline-6-carboxamide] | 2400
5 | COc1cnc(-c2cc([C@H](OC(=O)NC3CCC3)C(F)(F)F)ccc2F)nc1C(=O)N[C@@H]1C2CCC(/C2=C/C(F)(F)F)[C@@H]1C(=O)Nc1ccc(F)c(C(F)(F)F)c1 (stereo partly drawn) [Example 37, (1S)-2,2,2-trifluoro-1-14-fluoro-3-(4-{[(2R,3S,7Z)-3-{[4-fluoro-3-(trifluoromethyl)phenyl]carbamoyl}-7-(2,2,2-trifluoroethylidene)bicyclo[2.2.1]heptan-2-yl]carbamoyl}-5-methoxypyrimidin-2-yl)phenyl]ethyl N-cyclobutylcarbamate] | 95
6 | O=C(N[C@@H]1C2CCC(/C2=C/C(F)(F)F)[C@@H]1C(=O)Nc1ccc(F)c(C(F)(F)F)c1)c1cc(Br)ncc1OCCO (stereo partly drawn) [Example 45, 2-Bromo-N-[(2R,3S,7Z)-3-{[4-fluoro-3-(trifluoromethyl)phenyl]carbamoyl}-7-(2,2,2-trifluoroethylidene)bicyclo[2. 2.1]heptan-2-yl]-5-(2-hydroxyethoxy) pyridine-4-carboxamide] | 560
7 | COc1ncc(-c2cc([C@H](OC(=O)NC3CCC3)C(F)(F)F)ccc2F)cc1C(=O)N[C@@H]1C2CCC(/C2=C/C2CC(F)(F)C2)[C@@H]1C(=O)Nc1ccc(F)c(C(F)(F)F)c1 (stereo partly drawn) [Example 169, (1S)-1-[3-(5-{[(2R,3S,7Z)-7-[(3,3-difluorocyclobutyl)methylidene]-3-{[4-fluoro-3-(trifluoromethyl)phenyl]carbamoyl}bicyclo[2.2.1]heptan-2-yl]carbamoyl}-6-methoxypyridin-3-yl)-4-fluorophenyl]-2,2,2-trifluoroethyl N-cyclobutyl-carbamate] | 7.9
8 | COc1ncc(C(=O)N2CC3(COC3)C2)cc1C(=O)N[C@H]1[C@@H](C(=O)Nc2ccc(F)c(C(F)(F)F)c2)[C@H]2CC[C@@H]1/C2=C\C1CC1 [Example 76, N-[(1R,2R, 3S,4R,7Z)-7-(cyclopropyl-methylidene)-3-{[4-fluoro-3-(trifluoromethyl)phenyl]carbamoyl}bicyclo[2.2.1]heptan-2-yl]-2-methoxy-5-{2-oxa-6-azaspiro[3.3]heptane-6-carbonyl}pyridine-3-carboxamide] | 65
9 | COc1ncc(-c2cccc(C(=O)O)c2)cc1C(=O)N[C@@H]1C2CCC(/C2=C/C(F)(F)F)[C@@H]1C(=O)Nc1ccc(F)c(C(F)(F)F)c1 (stereo partly drawn) [Example 29, 3-(5-{[(2R,3S,7Z)-3-{[4-fluoro-3-(trifluoromethyl)phenyl]carbamoyl}-7-(2,2,2-trifluoroethylidene)bicyclo[2.2.1]heptan-2-yl]carbamoyl}-6-methoxypyridin-3-yl)benzoic acid] | 136
10 | COc1ncc(Br)cc1C(=O)N[C@@H]1C2CCC(C2=C(C)C)[C@@H]1C(=O)Nc1ccc(F)c(C(F)(F)F)c1 (stereo partly drawn) [Example 1, 5-bromo-N-[(2R,3S)-3-{[4-fluoro-3-(trifluoromethyl)phenyl]carbamoyl}-7-(propan-2-ylidene)bicyclo[2.2.1]heptan-2-yl]-2-methoxypyridine-3-carboxamide] | 710

Compounds with a lower EC50, results first:

Row | EC50 [nM] | Structure (SMILES)
11 | 4.3 | COc1ncc(C2=NOC3CC(CO)CC23)cc1C(=O)N[C@H]1[C@@H](C(=O)Nc2ccc(F)c(C(F)(F)F)c2)[C@H]2CC[C@@H]1/C2=C\C1CCCC1 (stereo partly drawn) [Example 172, N-[(1R,2R,3S,4R, 7Z)-7-(cyclopentyl-methylidene)-3-{[4-fluoro-3-(trifluoromethyl)phenyl]carbamoyl}bicyclo[2.2.1]heptan-2-yl]-5-[5-(hydroxymethyl) 3aH,4H,5H,6H, 6aH-cyclopenta[d][1,2]oxazol-3-yl]-2-methoxypyridine-3-carboxamide]
12 | 3.5 | COc1ncc(C(=O)N2CC(S(C)(=O)=O)C2)cc1C(=O)N[C@H]1[C@@H](C(=O)N[C@H](C)C2(C)CC2)[C@H]2CC[C@@H]1/C2=C\C1CC1 [Example 151, N-[(1R,2R,4R,7Z)-7-(cyclopropyl-methylidene)-3-{[(1R)-1-(1-methylcyclopropyl)ethyl]carbamoyl}bicyclo[2.2.1]heptan-2-yl]-5-(3-methanesulfonylazetidine-1-carbonyl)-2-methoxypyridine-3-carboxamide]
13 | 4.6 | CC1Cc2cc(C3=NOC4CC(CO)CC34)cc(C(=O)N[C@H]3[C@@H](C(=O)N[C@H](C)C4(C)CC4)[C@H]4CC[C@@H]3/C4=C\C3CC3)c2O1 (stereo partly drawn) [Example 153, N-[(1R,2R,3S,4R, 7Z)-7-(cyclopropyl-methylidene)-3-{[(1R)-1-(1-methylcyclopropyl)ethyl]carbamoyl}bicyclo[2.2.1]heptan-2-yl]-5-[5-(hydroxymethyl) 3aH,4H,5H,6H, 6aH-cyclopenta[d][1,2]oxazol-3-yl]-2-methyl-2,3-dihydro-1-benzofuran-7-carboxamide]
14 | 2.6 | CNC(=O)O[C@@H](c1ccc(F)c(-c2cnc(OC)c(C(=O)N[C@@H]3C4CCC(/C4=C/C4CC4)[C@@H]3C(=O)Nc3ccc(F)c(C(F)(F)F)c3)c2)c1)C(F)(F)F (stereo partly drawn) [Example 182, (1S)-1-[3-(5-{[(2R,3S,7Z)-7-(cyclopropyl-methylidene)-3-{[4-fluoro-3-(trifluoromethyl)phenyl]carbamoyl}bicyclo[2.2.1]heptan-2-yl]carbamoyl}-6-methoxypyridin-3-yl)-4-fluorophenyl]-2,2,2-trifluoroethyl N-methylcarbamate]
15 | 4 | COc1ncc(C2=NOC3CC(CO)CC23)cc1C(=O)N[C@H]1[C@@H](C(=O)N[C@H](C)C2(C)CC2(F)F)[C@H]2CC[C@@H]1/C2=C\C(F)(F)F (stereo partly drawn) [Example 118, N-((1R,2R,3S,4R,Z)-3-(((1R)-1-(2,2-difluoro-1-methylcyclopropyl)ethyl)carbamoyl)-7-(2,2,2-trifluoroethylidene)bicyclo[2.2.1]heptan-2-yl)-5-(5-(hydroxymethyl)-3a,5,6,6a-tetrahydro-4H-cyclopenta[d]isoxazol-3-yl)-2-methoxynicotinamide]
16 | 0.5 | COc1ncc(-c2cc([C@H](OC(=O)NC3CCC3)C(F)(F)F)ccc2F)cc1C(=O)N[C@H]1[C@@H](C(=O)N[C@H](C)C2(C)CC2)[C@H]2CC[C@@H]1/C2=C\C1CC(F)(F)C1 [Example 188, (1S)-1-[3-(5-{[(1R,2R,3S,4R,7Z)-7-[(3,3-difluorocyclobutyl)methylidene]-3-{[(1R)-1-(1-methylcyclopropyl)ethyl]carbamoyl}bicyclo[2.2.1]heptan-2-yl]carbamoyl}-6-methoxypyridin-3-yl)-4-fluorophenyl]-2,2,2-trifluoroethyl N-cyclobutyl-carbamate]
17 | 2.1 | COc1ncc(C2=NOC3CC(CO)CC23)cc1C(=O)N[C@H]1[C@@H](C(=O)N[C@H](C)C2(C)CC2)[C@H]2CC[C@@H]1/C2=C\C(F)(F)F (stereo partly drawn) [Example 115, 5-(5-(hydroxymethyl)-3a,5,6,6a-tetrahydro-4H-cyclopenta[d]isoxazol-3-yl)-2-methoxy-N-((1R,2R,3S,4R,Z)-3-(((R)-1-(1-methylcyclopropyl)ethyl)carbamoyl)-7-(2,2,2-trifluoroethylidene)bicyclo[2.2.1]heptan-2-yl)nicotinamide]
18 | 3.2 | COc1ncc(C2=NOC3CC(CO)CC23)cc1C(=O)N[C@@H]1C2CCC(/C2=C/c2csc(C)n2)[C@@H]1C(=O)N[C@H](C)C1(C)CC1 (stereo partly drawn) [Example 99]
